In brackets after ≈: the same amount, converted by molar mass. Read-outs that look alike come from different tables or passages of the source.
How the values were obtained:
[1] = test system: S. aureus (MRSA) MW2; test: Minimal inhibitory concentration (MIC) assay, micro-dilution; format: cell-based; conditions: for antibiotic activity / potency relative to nTZDpa: growing S. aureus cells
Description: Bacterial strains, growth conditions, and persister isolation. Methicillin-resistant S. aureus strains, MW2 BAA-1707, ATCC 33591, and JE2, methicillin-susceptible S. aureus strains, NCTC 8325, Newman, and ATCC 29213, vancomycin-resistant S. aureus strain, VRS1, Enterococcus faecium E007, vancomycin-resistant E. faecium strains, C68,^7 WB312, and WC196, Klebsiella pneumoniae WGLW2 (BEI Resources, Manassas, Va., USA), Acinetobacter baumannii ATCC 17978, Pseudomonas aeruginosa PA14, and Enterobacter aerogenes ATCC 13048 were used to test antimicrobial activity (Table 1). S. aureus strains were grown in tryptic soy broth (TSB) (BD, Franklin Lakes, N.J., USA), and E. faecium was grown in brain-heart infusion (BHI) broth (BD, Franklin Lakes, N.J., USA) at 37° C. K. pneumoniae, A. baumannii, P. aeruginosa, and E. aerogenes were grown in Luria Bertani (LB) broth (BD, Franklin Lakes, N.J., USA) at 37° C.
Minimal inhibitory concentration (MIC) assay. The MICS of antibiotics were determined by the standard micro-dilution method recommended by the Clinical and Laboratory Standards Institute. MIC assays were conducted in biological triplicate.

[2] = test system: human erythrocytes; test: Human blood hemolysis; format: cell-based; conditions: human erythrocytes
Protocol: Human blood hemolysis. Hemolytic activity was evaluated as described in a previous study. Briefly, 100 μL of 4% human erythrocytes (Rockland Immunochemicals, Limerick, Pa., USA) was added to 100 μL of 2-fold serial dilutions of compounds in PBS, 0.2% DMSO (negative control), or 2% Triton-X 100 (positive control) in a 96-well plate. The 96-well plate was incubated at 37° C. for 1 h and then centrifuged at 500× g for 5 min. 50 μL of the supernatant was transferred to a fresh 96-well plate, and absorbance of supernatants was measured at 540 nm. Percent hemolysis was calculated using the following equation: (A540 nm of compound treated sample−A540 nm of 0.1% DMSO treated sample)/(A540 nm of 1% Triton X-100 treated sample−A540 nm of 0.1% DMSO treated sample)×100. HC50 (concentration of a compound causing 50% hemolysis) was determined using SigmaPlot 10.0 (Systat Software Inc., San Jose, Calif., USA).

[3] = test system: MRSA MW2 persisters (stationary phase); test: Persister killing assay; format: cell-based, S. aureus; conditions: 64 μg/mL
Protocol: Persister killing assay. […] Persister cells of MRSA MW2 were prepared by growing cultures overnight to stationary phase at 37° C. at 200 rpm and washing 3 times with PBS. 1 mL of ˜2×10^8 CFU/mL MRSA persisters was added to 1 mL of PBS containing 2-fold of the desired concentration of antibiotics in a 96-well assay block (Corning Costar 3960). The assay block was incubated at 37° C., with shaking at 200 rpm. At specific times, […] were removed, washed once with PBS, serially diluted and spot-plated on TSA plates. Colonies were counted to enumerate the number of live cells after overnight incubation at 37° C. These experiments were conducted in biological triplicate.

[4] = test system: MRSA MW2; test: Antibiotic synergy test (checkerboard); format: cell-based, S. aureus; conditions: nTZDpa in combination with the named antibiotic, synergy if FICI ≤ 0.5
Protocol: Antibiotic synergy test. Antibiotic synergism was evaluated by the checkerboard method. Briefly, 2-fold serial dilutions of nTZDpa were combined with 2-fold serial dilutions of each other antibiotic, which created an 8×8 matrix in a 96-well microtiter plate. The fractional inhibitory concentration index (FICI) was calculated as follows: FICI=MIC of compound A in combination/MIC of compound A alone+MIC of compound B in combination/MIC of compound B alone. The interaction between two compounds was defined, as follows: synergy if FICI≤0.5, no interaction if 0.5<FICI≤4, and antagonism if FICI>4.

[5] = Staphylococcus aureus, Example 5, MRSA MW2, read-out: MIC
[6] = Staphylococcus aureus, Table 3, growing MRSA, read-out: MIC
[7] = Staphylococcus aureus, MRSA, PPARγ agonists, read-out: MICS against S. aureus MW2

Row | Structure (SMILES) | MIC [1, 6] | HC50: median hemolytic concentration [2] | other results
1 | O=C(O)c1c(Sc2ccccc2)c2cc(Cl)ccc2n1Cc1cccc(Cl)c1 [Analog 2b, 5-chloro-1-(3-chlorobenzyl)-3-(phenylthio)-1H-indole-2-carboxylic acid] |  |  | MIC ([1]; Example 5, MRSA MW2): same MIC
2 | Cn1c(C(=O)O)c(Sc2ccccc2)c2cc(Cl)ccc21 [Analog 5, 5-chloro-1-methyl-3-(phenylthio)-1H-indole-2-carboxylic acid] |  |  | MIC [1, 5]: 64 mg/L (≈ 201 µM)
3 | O=C(O)c1c(Sc2ccc(Cl)cc2)c2cc(Cl)ccc2n1Cc1ccc(Cl)cc1 [Compound 4, 5-chloro-1-(4-chlorobenzyl)-3-((4-chlorophenyl)thio)-1H-indole-2-carboxylic acid] | 2 mg/L (≈ 4.32 µM) | 34 µg/mL | 
4 | CC(C)(C)c1ccc(Sc2c(C(=O)O)n(Cc3ccc(Cl)cc3)c3ccc(Cl)cc23)cc1 [Compound 5, 3-((4-(tert-butyl)phenyl)thio)-5-chloro-1-(4-chlorobenzyl)-1H-indole-2-carboxylic acid] | 2 mg/L (≈ 4.13 µM) | 26 µg/mL | 
5 | O=C(O)c1c(Oc2ccccc2)c2cc(Cl)ccc2n1Cc1ccc(Cl)cc1 [Compound 6, 5-chloro-1-(4-chlorobenzyl)-3-phenoxy-1H-indole-2-carboxylic acid] | 4 mg/L (≈ 9.7 µM) | >64 µg/mL | antibiotic activity / potency relative to nTZDpa [1]: equipotent with nTZDpa; decrease in viability of persisters [3]: 3 log
6 | O=C(O)c1c(Oc2ccccc2)c2cc(Cl)ccc2n1Cc1ccc(Cl)c(Cl)c1 [Compound 10, 5-chloro-1-(3,4-dichlorobenzyl)-3-phenoxy-1H-indole-2-carboxylic acid] | 2 mg/L (≈ 4.48 µM) | >64 µg/mL | 
7 | O=C(O)c1c(Oc2ccc(Cl)cc2)c2cc(Cl)ccc2n1Cc1ccc(Cl)cc1 [Compound 11, 5-chloro-1-(4-chlorobenzyl)-3-(4-chlorophenoxy)-1H-indole-2-carboxylic acid] | 2 mg/L (≈ 4.48 µM) | >64 µg/mL | 
8 | O=C(O)c1c(Oc2ccc(Cl)c(Cl)c2)c2cc(Cl)ccc2n1Cc1ccc(Cl)cc1 [Compound 12, 5-chloro-1-(4-chlorobenzyl)-3-(3,4-dichlorophenoxy)-1H-indole-2-carboxylic acid] | 1 mg/L (≈ 2.08 µM) | 38 µg/mL | 
9 | O=C(O)c1c(Oc2ccc(Br)cc2)c2cc(Cl)ccc2n1Cc1ccc(Cl)cc1 [Compound 13, 3-(4-bromophenoxy)-5-chloro-1-(4-chlorobenzyl)-1H-indole-2-carboxylic acid] | 2 mg/L (≈ 4.07 µM) | >64 µg/mL | 
10 | O=C(O)c1c(Oc2ccc(I)cc2)c2cc(Cl)ccc2n1Cc1ccc(Cl)cc1 [Compound 14, 5-chloro-1-(4-chlorobenzyl)-3-(4-iodophenoxy)-1H-indole-2-carboxylic acid] | 1 mg/L (≈ 1.86 µM) | >64 µg/mL | 
11 | O=C(O)c1c(Cc2ccccc2)c2cc(Cl)ccc2n1Cc1ccc(Cl)cc1 [Compound S12, 3-benzyl-5-chloro-1-(4-chlorobenzyl)-1H-indole-2-carboxylic acid] |  |  | antibiotic activity / potency relative to nTZDpa [1]: less potency
12 | OCc1c(Oc2ccccc2)c2cc(Cl)ccc2n1Cc1ccc(Cl)cc1 [Compound S13, (5-chloro-1-(4-chlorobenzyl)-3-phenoxy-1H-indol-2-yl)methanol] |  |  | antibiotic activity / potency relative to nTZDpa [1]: reduction of antibiotic activity
13 | NC[C@H]1O[C@H](O[C@H]2[C@H](O)[C@@H](O[C@H]3O[C@H](CO)[C@@H](O)[C@H](N)[C@H]3O)[C@H](N)C[C@@H]2N)[C@H](O)[C@@H](O)[C@@H]1O [Kanamycin, kanamysin] |  |  | FICI (fractional inhibitory concentration index) [4]: 0.5
14 | CO[C@H]1/C=C/O[C@@]2(C)Oc3c(C)c(O)c4c(O)c(c(/C=N/N5CCN(C)CC5)c(O)c4c3C2=O)NC(=O)/C(C)=C\C=C\[C@H](C)[C@H](O)[C@@H](C)[C@@H](O)[C@@H](C)[C@H](OC(C)=O)[C@@H]1C [Rifampicin, rifampicin] |  |  | FICI (fractional inhibitory concentration index) [4]: 1
15 | O=C(O)c1c(Sc2ccccc2)c2cc(Cl)ccc2n1Cc1ccccc1 [S4 (analog 2), 1-benzyl-5-chloro-3-(phenylthio)-1H-indole-2-carboxylic acid] |  |  | MIC [1, 5]: 16 mg/L (≈ 40.6 µM)
16 | [H]/N=C(/N)N[C@H]1[C@H](O)[C@@H](O)[C@H](O[C@@H]2O[C@@H](C)[C@](O)(C=O)[C@H]2O[C@@H]2O[C@@H](CO)[C@H](O)[C@@H](O)[C@@H]2NC)[C@@H](N/C(N)=N\[H])[C@@H]1O [Streptomycin, streptomycin] |  |  | FICI (fractional inhibitory concentration index) [4]: 0.37
17 | CN(C)[C@@H]1C(O)=C(C(N)=O)C(=O)[C@@]2(O)C(O)=C3C(=O)c4c(O)cccc4[C@@](C)(O)[C@H]3C[C@@H]12 [Tetracycline, tetracycline] |  |  | FICI (fractional inhibitory concentration index) [4]: 1.125
18 | NC[C@H]1O[C@H](O[C@H]2[C@H](O)[C@@H](O[C@H]3O[C@H](CO)[C@@H](O)[C@H](N)[C@H]3O)[C@H](N)C[C@@H]2N)[C@H](N)C[C@@H]1O [Tobramycin, tobaramysin] |  |  | FICI (fractional inhibitory concentration index) [4]: 0.31
19 | CCc1ccc(CCOc2ccc(CC3SC(=O)NC3=O)cc2)nc1 (stereo not drawn) [pioglitazone, reference compound] |  |  | MIC [1, 7]: > 64 mg/L
20 | CN(CCOc1ccc(CC2SC(=O)NC2=O)cc1)c1ccccn1 (stereo not drawn) [rosiglitazone, reference compound] |  |  | MIC [1, 7]: > 64 mg/L

From patent publication US11690824B2, “Antibacterial compounds” (THE GENERAL HOSPITAL CORPORATION, priority 2018, dated 2023)
